Data: patent US20260262643A1, “HERBICIDAL BENZOXAZINES” (FMC CORPORATION, priority 2022, published 2026)

How the values were obtained:
[1] = test system: blackgrass; experiment: Test C postemergence; assay type: in vivo, Alopecurus myosuroides; details: 10 days, 0 to 100 scale (0 no effect, 100 complete control)
Summary of the method: (§1)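 Greenhouse herbicide screen, 10-day duration. Test chemicals in solvent/surfactant blend were sprayed onto soil at sowing (pre) or onto 2–10 cm seedlings at one to two leaves (post); injury scored visually against controls, 0 no effect to 100 complete control.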

[2] = test system: ducksalad; experiment: Test D flooded paddy test; assay type: in vivo, Heteranthera limosa; details: 250 g ai/ha, applied to paddy water, visual rating after 13 to 14 days, scale 0 to 100 (0 no effect, 100 complete control)
Summary of the method: (§2)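 Visual ratings from 0, meaning no effect, to 100, meaning complete control, were assigned against untreated controls 13 to 14 days after compounds were added to the floodwater of pots kept 3 cm deep, with plants at the 2-leaf stage.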

[3] = test system: sedge, umbrella; experiment: Test D flooded paddy test; assay type: in vivo, Cyperus difformis; details: 250 g ai/ha, applied to paddy water, visual rating after 13 to 14 days, scale 0 to 100 (0 no effect, 100 complete control)
Summary of the method: as §2

[4] = test system: pigweed, palmer; experiment: Test C postemergence; assay type: in vivo, Amaranthus palmeri; details: 10 days, 0 to 100 scale (0 no effect, 100 complete control)
Summary of the method: as §1

[5] = test system: oat, wild; experiment: Test C preemergence; assay type: in vivo, Avena fatua
Summary of the method: as §1

[6] = test system: soybean; experiment: Test C postemergence; assay type: in vivo, Glycine max; details: 10 days, 0 to 100 scale (0 no effect, 100 complete control)
Summary of the method: as §1

[7] = test system: green foxtail; experiment: Test C preemergence; assay type: in vivo, Setaria viridis
Summary of the method: as §1

[8] = test system: kochia; experiment: Test C postemergence; assay type: in vivo, Bassia scoparia; details: 10 days, 0 to 100 scale (0 no effect, 100 complete control)
Summary of the method: as §1

[9] = test system: horseweed; experiment: Test C postemergence; assay type: in vivo, Erigeron canadensis; details: 10 days, 0 to 100 scale (0 no effect, 100 complete control)
Summary of the method: as §1

[10] = test system: soybean; experiment: Test C preemergence; assay type: in vivo, Glycine max
Summary of the method: as §1

[11] = test system: wheat; experiment: Test C preemergence; assay type: in vivo, Triticum aestivum
Summary of the method: as §1

[12] = test system: ryegrass, Italian; experiment: Test C preemergence; assay type: in vivo, Lolium multiflorum
Summary of the method: as §1

[13] = test system: oat, wild; experiment: Test C postemergence; assay type: in vivo, Avena fatua; details: 10 days, 0 to 100 scale (0 no effect, 100 complete control)
Summary of the method: as §1

[14] = test system: ragweed; experiment: Test C postemergence; assay type: in vivo, Ambrosia artemisiifolia; details: 10 days, 0 to 100 scale (0 no effect, 100 complete control)
Summary of the method: as §1

[15] = test system: corn; experiment: Test C postemergence; assay type: in vivo, Zea mays; details: 10 days, 0 to 100 scale (0 no effect, 100 complete control)
Summary of the method: as §1

[16] = test system: barnyardgrass; experiment: Test C preemergence; assay type: in vivo, Echinochloa crusgalli
Summary of the method: as §1

[17] = test system: corn; experiment: Test C preemergence; assay type: in vivo, Zea mays
Summary of the method: as §1

[18] = test system: barnyardgrass; experiment: Test D flooded paddy test; assay type: in vivo, Echinochloa crus-galli; details: 250 g ai/ha, applied to paddy water, visual rating after 13 to 14 days, scale 0 to 100 (0 no effect, 100 complete control)
Summary of the method: as §2

[19] = test system: galium; experiment: Test C postemergence; assay type: in vivo, Galium aparine; details: 10 days, 0 to 100 scale (0 no effect, 100 complete control)
Summary of the method: as §1

[20] = test system: kochia; experiment: Test C preemergence; assay type: in vivo, Bassia scoparia
Summary of the method: as §1

[21] = test system: green foxtail; experiment: Test C postemergence; assay type: in vivo, Setaria viridis; details: 10 days, 0 to 100 scale (0 no effect, 100 complete control)
Summary of the method: as §1

[22] = test system: ryegrass, Italian; experiment: Test C postemergence; assay type: in vivo, Lolium multiflorum; details: 10 days, 0 to 100 scale (0 no effect, 100 complete control)
Summary of the method: as §1

[23] = test system: barnyardgrass; experiment: Test C postemergence; assay type: in vivo, Echinochloa crusgalli; details: 10 days, 0 to 100 scale (0 no effect, 100 complete control)
Summary of the method: as §1

[24] = test system: wheat; experiment: Test C postemergence; assay type: in vivo, Triticum aestivum; details: 10 days, 0 to 100 scale (0 no effect, 100 complete control)
Summary of the method: as §1

[25] = test system: blackgrass; experiment: Test C preemergence; assay type: in vivo, Alopecurus myosuroides
Summary of the method: as §1

[26] = test system: pigweed, palmer; experiment: Test C preemergence; assay type: in vivo, Amaranthus palmeri
Summary of the method: as §1

[27] = test system: rice; experiment: Test D flooded paddy test; assay type: in vivo, Oryza sativa; details: 250 g ai/ha, applied to paddy water, visual rating after 13 to 14 days, scale 0 to 100 (0 no effect, 100 complete control)
Summary of the method: as §2

[28] = test system: ragweed; experiment: Test C preemergence; assay type: in vivo, Ambrosia artemisiifolia
Summary of the method: as §1

[29] = 500 g ai/ha, preemergence, 0 to 100 scale (0 no effect, 100 complete control)
[30] = Preemergence, 125 g ai/ha, 0 to 100 scale, 0 no effect, 100 complete control

## CCOC(=O)c1ncn(-c2ccc(C)c(C(=O)N3C[C@H](C)Oc4c(Cl)cccc43)c2)n1 [Compound 342]
[1]; 500 g ai/ha, postemergence
  Plant response rating, Blackgrass: 80
[1]; Postemergence, 125 g ai/ha
  Plant response rating, Blackgrass: 60
[2]
  Plant response rating, Ducksalad (Flood): 10
[3]
  Plant response rating, Sedge, Umbrella (Flood): 15
[4]; 500 g ai/ha, postemergence
  Plant response rating, Pigweed, Palmer: 100
[4]; Postemergence, 125 g ai/ha
  Plant response rating, Pigweed, Palmer: 90
[5]; [29]
  Oat, Wild plant response rating: 80
[5]; [30]
  Plant response rating, Oat, Wild: 20
[6]; 500 g ai/ha, postemergence
  Plant response rating, Soybean: 90
[6]; Postemergence, 125 g ai/ha
  Plant response rating, Soybean: 100
[7]; [29]
  Foxtail, Green plant response rating: 90
[7]; [30]
  Plant response rating, Foxtail, Green: 40
[8]; 500 g ai/ha, postemergence
  Plant response rating, Kochia: 60
[8]; Postemergence, 125 g ai/ha
  Plant response rating, Kochia: 40
[9]; 500 g ai/ha, postemergence
  Plant response rating, Horseweed: 50
[9]; Postemergence, 125 g ai/ha
  Plant response rating, Horseweed: 10
[10]; [29]
  Soybean plant response rating: 10
[10]; [30]
  Plant response rating, Soybean: 10
[11]; [29]
  Wheat plant response rating: 30
[11]; [30]
  Plant response rating, Wheat: 0
[12]; [29]
  Ryegrass, Italian plant response rating: 80
[12]; [30]
  Plant response rating, Ryegrass, Italian: 70
[13]; 500 g ai/ha, postemergence
  Plant response rating, Oat, Wild: 80
[13]; Postemergence, 125 g ai/ha
  Plant response rating, Oat, Wild: 70
[14]; 500 g ai/ha, postemergence
  Plant response rating, Ragweed: 80
[14]; Postemergence, 125 g ai/ha
  Plant response rating, Ragweed: 50
[15]; 500 g ai/ha, postemergence
  Plant response rating, Corn: 70
[15]; Postemergence, 125 g ai/ha
  Plant response rating, Corn: 70
[16]; [29]
  Barnyardgrass plant response rating: 60
[16]; [30]
  Plant response rating, Barnyardgrass: 20
[17]; [29]
  Corn plant response rating: 20
[17]; [30]
  Plant response rating, Corn: 0
[18]
  Plant response rating, Barnyardgrass (Flood): 0
[19]; 500 g ai/ha, postemergence
  Plant response rating, Galium: 80
[19]; Postemergence, 125 g ai/ha
  Plant response rating, Galium: 70
[20]; [29]
  Kochia plant response rating: 0
[20]; [30]
  Plant response rating, Kochia: 0
[21]; 500 g ai/ha, postemergence
  Plant response rating, Foxtail, Green: 90
[21]; Postemergence, 125 g ai/ha
  Plant response rating, Foxtail, Green: 80
[22]; 500 g ai/ha, postemergence
  Plant response rating, Ryegrass, Italian: 70
[22]; Postemergence, 125 g ai/ha
  Plant response rating, Ryegrass, Italian: 70
[23]; 500 g ai/ha, postemergence
  Plant response rating, Barnyardgrass: 70
[23]; Postemergence, 125 g ai/ha
  Plant response rating, Barnyardgrass: 60
[24]; 500 g ai/ha, postemergence
  Plant response rating, Wheat: 80
[24]; Postemergence, 125 g ai/ha
  Plant response rating, Wheat: 70
[25]; [29]
  Blackgrass plant response rating: 50
[25]; [30]
  Plant response rating, Blackgrass: 20
[26]; [29]
  Pigweed, Palmer plant response rating: 70
[26]; [30]
  Plant response rating, Pigweed, Palmer: 30
[27]
  Plant response rating, Rice (Flood): 15
[28]; [29]
  Ragweed plant response rating: 20
[28]; [30]
  Plant response rating, Ragweed: 0
